In PMC11078746 (Nature, 2024):

Experiments:
[1] = logD / logP; type: physicochemical; settings: for logD: 1-octanol/water, pH 7.4, 1-octanol and water at pH 7.4
[2] = Rat PK; type: in vivo
Protocol: PK parameters were determined by non-compartmental analysis. Intravenous bolus studies in mouse, rat and dog were performed at 1, 1 and 0.1 mg per kg respectively (Extended Data Table 1).

[3] = Ames
[4] = system: TK6; assay: in vitro TK6 MNT; type: cell-based
[5] = system: SW48; assay: cells; settings: Homo sapiens, SW48, read-out: CFA 10-14 day assay GI50
[6] = system: TOV21G; assay: 4 day proliferation assay (CellTiter-Glo); settings: Homo sapiens, 96 h, read-out: 4 day assay GI50
[7] = system: OC314; assay: 4 day proliferation assay (CellTiter-Glo); settings: Homo sapiens, OC-314, 96 h, read-out: 4 day assay GI50

Compound | logP [1] | logD [1] | Rat PK, oral bioavailability (F) [2] [% F] | Ames [3] | in vitro TK6 MNT [4] | GI50 [5] [µM] | GI50 [6] [µM] | GI50 [7] [µM]
CCc1c(N2CCN(C(=O)c3ncnc(C)c3O)CC2)c(=O)n2nc(C3=CCOCC3)nc2n1CC(=O)Nc1ccc(C(F)(F)F)cc1Cl [HRO761] | 3.4 | 1.8 | 74 | Negative | Negative | 0.031 | ≥ 10 | ≥ 10
CCc1c(N2CCN(C(=O)c3ncccc3O)CC2)c(=O)n2nc(C3=CCOCC3)nc2n1CC(=O)Nc1ccc(C(F)(F)F)cc1C [compound 3] |  | 2.9 | 20 |  |  |  |  | 
